Results from paper PMC6696115, “Characterization of Antimicrobial, Antioxidant, and Leishmanicidal Activities of Schiff Base Derivatives of 4-Aminoantipyrine” (Molecules, 2019).
In brackets after ≈: the same amount, converted by molar mass.

Experiments:
[1] = system: Aspergillus niger ATCC 6275; experiment: antimicrobial serial microdilution, A. niger; assay type: cell-based; conditions: Aspergillus niger, ATCC6275; serial microdilution, 96-well plates, 35 °C, 48 h, max 2% DMSO
Method: (§1) The in vitro antifungal and antimicrobial activities were determined by testing the Schiff bases against the fungi Saccharomyces cerevisiae, Candida albicans, and Aspergillus niger and the bacteria Staphylococcus aureus, Enterococcus faecalis (Gram-positive), Pseudomonas aeruginosa, and Escherichia coli (Gram-negative).
(§2) The bacterial inoculum was prepared by emulsifying overnight colonies from an agar medium in broth (Mueller–Hinton broth). The suspensions were adjusted to a final organism density of 5 × 10^5 colony former units (cfu)/mL. […] The emulsifying of A. niger cultures was done by pouring 5 mL of saline and 0.1% of polysorbate 80 over the Petri dishes. Then, 100 µL of this suspension were diluted in 5 mL of saline and adjusted to an optical density of 0.1 at 530 nm. For S. cerevisiae, fresh exponential YPAD (yeast extract 1%, peptone 2%, adenine 0.004%, […]) cultures were adjusted to an optical density of 0.5 at 600 nm, and then diluted to the equivalent of 1 × 10^4 cells/mL (10^−3 dilution). Stock solutions of Schiff bases were prepared by dissolving them in DMSO at 10 mg/mL. […] The range of concentrations used was empirically selected for each organisms and the Schiff base. Drug sensitivities were assayed by serial dilutions in 96-well plates as previously described. A row with media and cells but without drug was the positive control. The blank was done by preparing a row with media and drugs, but without cells. Plates were fitted with a tight lid before incubation to prevent desiccation. […] The minimum bactericidal concentration (MBC) and fungicidal concentration (MFC) were determined by spreading 100 µL of culture from each well onto a plate (Mueller–Hinton agar for bacteria, Sabouraud dextrose agar for fungi except S. cerevisiae, and YPAD for S. cerevisiae).

[2] = system: Enterococcus faecalis ATCC 29212; experiment: antimicrobial serial microdilution, E. faecalis; assay type: cell-based; conditions: serial microdilution, 37 °C, 24 h
Method: as §1, §2

[3] = system: Escherichia coli ATCC 25922; experiment: antimicrobial serial microdilution, E. coli; assay type: cell-based; conditions: serial microdilution, 37 °C, 24 h
Method: as §1, §2

[4] = system: Staphylococcus aureus ATCC 29213; experiment: antimicrobial serial microdilution, S. aureus; assay type: cell-based; conditions: Staphylococcus aureus, ATCC29213; serial microdilution, 37 °C, 24 h
Method: as §1, §2

[5] = system: promastigotes from L. mexicana (M379); experiment: leishmanicidal activity, MTT colorimetric assay; assay type: cell-based; conditions: Leishmania mexicana, 48 h exposure, 1% DMSO
Method: Leishmanicidal activities of all Schiff bases were evaluated by measuring promastigote mitochondrial activity using MTT colorimetric assay as described previously. […] The medium was renewed every four days. Parasite density was determined in a Neubauer chamber.
Into each well of a 96-well cell culture dish was dispensed 1 × 10^6 parasites. A stock solution of each of the Schiff Base was prepared in DMSO, and serial dilutions were added to the parasite suspension, keeping the solvent concentration at 1%. The final volume was 100 µL for each well and triplicate conditions were carried out. Pentamidine treatment (100 µg/mL) and untreated parasites were used as positive control and negative control, respectively. After exposure to the compounds for 48 h in culture medium, 10 µL of a solution of 5 mg/mL MTT dissolved in PBS was added to each well. […] Later, the plate was centrifuged at 4400 rpm for 10 min and the culture medium was then aspirated. Next, 100 µL of DMSO were added into each well to solubilize the formazan and the plate was shaken for 5 min. The colored formazan salt was measured by recording changes in absorbance at 570 nm using a microplate reader, a BioTek Synergy HT spectrophotometer. A reference wavelength of 630 nm was used to subtract background. Optical densities were analyzed as the quantity of formazan is directly proportional to the number of viable parasites. Data were analyzed with the statistical software GraphPad Prism.

[6] = DPPH radical scavenging assay; assay type: biochemical; conditions: for IC50: 30 min, room temperature, dark, absorbance 515 nm
Method: This was used immediately. The experimental procedure was adapted from the literature. Briefly, in a 96-well plate, 100 µL of solution of DPPH (2, 2-diphenyl-1-picrylhydrazyl) radical (0.2 mM in methanol) was added to 100 µL of methanolic solutions of 3a–j, 4, or 5, prepared as serial two-fold dilutions from the stock solution. Standards were also prepared in the same concentrations.
The percentage of DPPH scavenging was then calculated by using the following formula: % DPPH scavenging=100∗Asample+DPPH−Asample blank/ADPPH−Asolvent

[7] = system: Candida albicans ATCC 10231; experiment: antimicrobial serial microdilution, C. albicans; assay type: cell-based; conditions: Candida albicans, ATCC10231; serial microdilution, 35 °C, 48 h
Method: as §1, §2

P. aeruginosa ATCC 27853 = experiment: antimicrobial serial microdilution, P. aeruginosa; assay type: cell-based; conditions: Pseudomonas aeruginosa, ATCC27853, 37 °C, 24 h
Method: as §1, §2

RAW 264.7 cells = experiment: cell viability, MTT dye assay; assay type: cell-based, murine; conditions: 48 h
Method: The specificity and selectivity for the pathogen target is a key point for any potential drug.
The medium was renewed once a week. The viability was determined using MTT (thiazolyl blue tetrazolium bromide) dye assay as described previously for leishmanicidal activity assessment, with some variations. Here, 5 × 10^4 cells/well in a final volume of 100 µL were deposited into a 96-well plate in triplicate. Saponin (2 and 4 mg/mL) and untreated cells were used as the positive control and negative control, respectively. Schiff bases were dissolved in DMSO to obtain different serial concentrations (0.01–2000 µM). […] Cells were pelleted by centrifugation at 4400 rpm for 10 minutes and the media was removed. Next, 100 µL/well of DMSO were added and the absorbance at 570 nm was recorded. A reference wavelength of 630 nm was used for background subtraction.

[8] = system: S. cerevisiae (backgrounds W303 and BY4741); experiment: antimicrobial serial microdilution, S. cerevisiae; assay type: cell-based, Saccharomyces cerevisiae; conditions: serial microdilution, 35 °C, 48 h; for MIC: read-out: MIC S. cerevisiae
Method: as §1, §2

[9] = system: S. cerevisiae wild type (BY4741); experiment: growth inhibition (OD600) of wild-type yeast, oxidative effect; assay type: cell-based, Saccharomyces cerevisiae; conditions: unit not given
Method: (§3) Next, we wanted to evaluate the oxidative activity. To do this, drop test assays were performed with wild-type (W303 and BY4741 backgrounds) and sod1 (BY4741 background) yeast cells in the presence of 200 µg/mL of the analyzed Schiff bases (Figure 3). The SOD1 gene encodes superoxide dismutase 1, an enzyme with a major role in detoxifying ROS species generated during metabolism or because of environmental exposure. sod1 mutant cells are unprotected against oxidative agents, decreasing survival in their presence.
(§4) (A) Drop test of serial dilution of yeast cell cultures (wild type from genetic background W303, wild type from genetic background BY4741, and sod1 mutant from genetic background BY4741) exposed to Schiff bases at 200 µg/mL. A control without drug and with 2% DMSO are included.
as §2

[10] = system: S. cerevisiae sod1 mutant (BY4741); experiment: growth inhibition (OD600) of sod1 mutant yeast, oxidative effect; assay type: cell-based, Saccharomyces cerevisiae; conditions: sod1 mutant BY4741, unit not given
Method: as §3, §4, §2

S. cerevisiae = experiment: biocidal/biostatic evaluation, plating on drug-free media, S. cerevisiae; assay type: cell-based, Saccharomyces cerevisiae; conditions: 24 h exposure, then plated on media free of drug
Method: as §2, with “cells.” for “cells. Plates were fitted with a tight lid before incubation to prevent desiccation.”

[11] = system: S. cerevisiae wild-type (W303 and BY4741 backgrounds); experiment: drop test, wild-type yeast; assay type: cell-based, Saccharomyces cerevisiae; conditions: 200 µg/mL, 48 h, 25 °C
Method: Since the Schiff bases have a limited solubility in dimethyl sulfoxide (DMSO), first, we tested the toxicity of DMSO against the selected microorganism. […] Wild-type cells from W303 background seem to be more resistant, and sensitivity is observed at around 4% DMSO.
as §3, with “presence. […] Also, wild-type cells are shown as control, unaffected by the Schiff bases.” for “presence.”
(§5) For the drop test with S. cerevisiae, wild-type strain (background W303), and wild type and sod1 mutant cells (background BY4741) were grown overnight in YPAD media until an optical density of 0.5 at 600 nm was reached (equivalent to 1 × 10^7 cells/mL). Three serial dilutions were prepared and 5 µL of each was spotted onto a plate (approximately 1 × 10^5, 1 × 10^4, 1 × 10^3, and 1 × 10^2 cells/spot). YPAD plates were supplemented with 200 µg/mL of each Schiff base, and one plate supplemented with 2% DMSO and one plate with YPAD without any drug were used as controls. Plates were incubated at 25 °C for 24, 48, and 72 h.

[12] = system: S. cerevisiae sod1 mutant cells (background BY4741); experiment: drop test, sod1 mutant yeast; assay type: cell-based, Saccharomyces cerevisiae; conditions: 200 µg/mL, 48 h, 25 °C, compared to control
Method: as §3, with “presence. […] Also, wild-type cells are shown as control, unaffected by the Schiff bases.” for “presence.”
as §5

[13] = Enterococcus faecalis, ATCC29212

| Compound | MIC [1] [µg/mL] | MIC [2, 13] [µg/mL] | MIC ([3]; Escherichia coli, ATCC25922) [µg/mL] | MIC [4] [µg/mL] | melting point [°C] | IC50 [5] [µM] | IC50 [6] [µM] | MIC [7] [µg/mL] | MIC (P. aeruginosa ATCC 27853) [µg/mL] | MIC ([8]; Saccharomyces cerevisiae) [µg/mL] | other results |
| --- | --- | --- | --- | --- | --- | --- | --- | --- | --- | --- | --- |
| Cc1c(N=Cc2ccccc2)c(=O)n(-c2ccccc2)n1C [Compound 3a, 4-Benzylideneamino-1,5-dimethyl-2-phenyl-1H-pyrazol-3(2H)-one] | > 200 | 32.3 ± 11.7 (≈ 111 µM) | > 200 | > 200 | 176.8 to 177.2 | > 200 | > 200 | > 200 | > 200 | > 200 | IC50 [2, 13]: 12.2 µg/mL (≈ 41.9 µM); NIC E. faecalis ([2]; noninhibitory concentration): 3.6 ± 0.7 µg/mL; % Live Cells (RAW 264.7 cells; RAW 264.7, exposure to 400 µM): 27.1 ± 3.4% |
| COc1ccc(C=Nc2c(C)n(C)n(-c3ccccc3)c2=O)cc1O [Compound 3e, 4-(3-Hydroxy-4-methoxybenzylideneamino)-1,5-dimethyl-2-phenyl-1H-pyrazol-3(2H)-one] | > 200 | > 200 | > 200 | > 200 | 246.8 to 247.2 | > 200 | > 200 | > 200 | > 200 | > 200 | % Live Cells (RAW 264.7 cells; RAW 264.7, exposure to 300 µM (limited solubility)): 27.1 ± 0.8% |
| Cc1c(N=CC=Cc2ccccc2)c(=O)n(-c2ccccc2)n1C [Compound 5, 4-Phenylallylideneamino-1,5-dimethyl-2-phenyl-1H-pyrazol-3(2H)-one] | > 200 | > 200 | 22.6 ± 14.1 (≈ 71.2 µM) | > 200 | 165.5 to 165.9 | 81.5 ± 12.5 | > 200 | > 200 | > 200 | 76.7 ± 5.7 (≈ 242 µM) | NIC Wt [9]: 22.6 ± 0.6; MIC Wt ([9]; in µg/mL): 65.2 ± 0.2; NIC sod1 [10]: 19.5 ± 0.8; MIC sod1 ([10]; in µg/mL): 39.4 ± 0.9; IC50 ([3]; Escherichia coli, ATCC25922): 12.4 µg/mL (≈ 39.1 µM); NIC E. coli ([3]; noninhibitory concentration): 5.1 ± 2.4 µg/mL; inhibitory mechanism (fungicidal or fungistatic) (S. cerevisiae): fungicidal; effect on wild-type cells in drop test [11]: unaffected; antioxidant activity detected in the DPPH assay ([6]; statement in words): no significant antioxidant activity; sensitivity of sod1 cells in drop test [12]: sensitive; IC50 ([8]; Saccharomyces cerevisiae, read-out: IC50 S. cerevisiae (converted)): 22.8 µg/mL (≈ 71.8 µM); NIC S. cerevisiae ([8]; noninhibitory concentration): 6.6 ± 0.7 µg/mL |
